Assay [1] deals with T1, E1p/E2p-PSBD complex (pyruvate dehydrogenase E1 subunit with E2p peripheral subunit binding domain) (Geobacillus stearothermophilus, UniProt P21873+P21874).
T1 construct: gene pdhA; alpha2beta2 heterotetramer with one E2p PSBD; recombinant in E. coli TG1 recO (plasmids pKBstE1a, pKBstE1b); he-3-deazaThDP crystals grown with E2p di-domain (lipoyl domain-linker-PSBD); with Dihydrolipoyllysine-residue acetyltransferase component of pyruvate dehydrogenase complex
Nature of the assay: X-ray crystal structure, […] A.

The target in assay [2] is T2, E1p/E2p-PSBD complex (pyruvate dehydrogenase E1 subunit with E2p peripheral subunit binding domain) (Geobacillus stearothermophilus, UniProt P21873+P21874, P21873:I207A).
T2 construct: gene pdhA; alpha2beta2 heterotetramer with one E2p PSBD; recombinant in E. coli TG1 recO (plasmids pKBstE1a, pKBstE1b); he-3-deazaThDP crystals grown with E2p di-domain (lipoyl domain-linker-PSBD); with Dihydrolipoyllysine-residue acetyltransferase component of pyruvate dehydrogenase complex
Briefly: X-ray crystal structure, […] A. The note with it: 5 mM 3-deazaThDP; crystals at pH 5.0; ThDP site.

On to `Cc1ncc(Cc2csc(CCOP(=O)(O)OP(=O)(O)O)c2C)c(N)n1` [3-deazaThDP], for which the “X-ray crystal structure, 2.3 A” value in assay [1] (Mg2+, pyruvate soaked in, ThDP site) was “we have solved the structure of the E1p/E2p-PSBD complex with bound 3-deazaThDP and pyruvate”. Besides, the “X-ray crystal structure, 2.35 A” value in assay [2] is “crystal structure of the complex of 3-deazaThDP with the G. stearothermophilus E1p I206Aα mutant”.

In the case of `CC(=O)C(=O)O` [pyruvate], the “X-ray crystal structure, 2.3 A” value in assay [1] (10 mM pyruvate soak 1 week into 3-deazaThDP crystals, density in two of four sites, orientation not definitive) is “density in the active-site pocket that is likely to be due to pyruvate binding”.

(Values after PMC2663715, “Snapshots of Catalysis in the E1 Subunit of the Pyruvate Dehydrogenase Multienzyme Complex” (Structure(London, England:1993), 2008).)
